Reference: ChEMBL document CHEMBL1201862, “PubChem BioAssay data set” (2004)
Calls of active or inactive are those of the source.

Key:
[1] = target: T1, Histone-lysine N-methyltransferase NSD2 (Homo sapiens, UniProt O96028); format: biochemical
T1 sequence (O96028 whole entry): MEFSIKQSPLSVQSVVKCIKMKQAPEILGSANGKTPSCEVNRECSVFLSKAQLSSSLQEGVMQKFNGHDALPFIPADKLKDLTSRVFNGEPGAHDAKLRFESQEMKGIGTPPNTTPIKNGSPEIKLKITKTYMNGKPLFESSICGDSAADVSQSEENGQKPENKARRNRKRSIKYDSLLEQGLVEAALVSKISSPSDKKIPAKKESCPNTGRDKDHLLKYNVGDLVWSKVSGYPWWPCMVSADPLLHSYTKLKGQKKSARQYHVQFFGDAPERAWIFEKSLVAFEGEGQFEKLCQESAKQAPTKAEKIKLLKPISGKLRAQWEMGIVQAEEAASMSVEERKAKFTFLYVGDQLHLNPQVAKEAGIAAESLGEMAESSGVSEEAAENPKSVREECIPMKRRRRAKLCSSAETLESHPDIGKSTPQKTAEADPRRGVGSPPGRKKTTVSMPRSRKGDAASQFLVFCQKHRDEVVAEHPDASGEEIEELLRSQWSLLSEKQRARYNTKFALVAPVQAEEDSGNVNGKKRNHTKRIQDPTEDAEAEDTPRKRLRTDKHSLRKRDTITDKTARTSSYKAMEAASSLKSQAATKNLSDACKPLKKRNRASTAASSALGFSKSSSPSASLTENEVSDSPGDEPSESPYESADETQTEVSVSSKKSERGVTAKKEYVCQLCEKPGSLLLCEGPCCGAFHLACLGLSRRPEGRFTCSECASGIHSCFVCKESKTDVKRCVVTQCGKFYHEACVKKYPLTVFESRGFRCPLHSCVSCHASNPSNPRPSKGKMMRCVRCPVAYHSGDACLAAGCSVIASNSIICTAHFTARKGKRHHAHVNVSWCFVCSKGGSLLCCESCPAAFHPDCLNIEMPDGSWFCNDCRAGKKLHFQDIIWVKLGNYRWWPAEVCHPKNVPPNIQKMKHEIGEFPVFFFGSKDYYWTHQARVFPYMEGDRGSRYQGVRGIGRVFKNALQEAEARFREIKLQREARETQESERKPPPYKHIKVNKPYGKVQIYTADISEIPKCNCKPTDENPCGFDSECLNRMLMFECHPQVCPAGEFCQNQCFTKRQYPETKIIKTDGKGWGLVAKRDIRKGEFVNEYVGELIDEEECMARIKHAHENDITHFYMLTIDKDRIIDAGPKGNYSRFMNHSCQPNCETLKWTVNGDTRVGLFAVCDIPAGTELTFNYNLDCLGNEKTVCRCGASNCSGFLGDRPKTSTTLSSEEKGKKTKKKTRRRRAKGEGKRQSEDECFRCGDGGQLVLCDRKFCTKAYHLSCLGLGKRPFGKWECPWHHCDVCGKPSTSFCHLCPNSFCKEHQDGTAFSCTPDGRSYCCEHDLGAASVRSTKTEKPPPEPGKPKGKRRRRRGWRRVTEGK

[2] = Luminescence-based cell-based high throughput dose response assay to identify activators of the DAF-12 from the parasite S. stercoralis (ssDAF-12).; format: functional
[3] = target: T2, Oxysterols receptor LXR-beta (Homo sapiens, UniProt P55055); assay: LXR agonists, Gal4 luciferase reporter, dose response, counter-screen for ssDAF-12 agonist project, cell-based, luminescence, HEK293, S. stercoralis campaign (AID 720737); format: functional; details: read-out: IC50 (the source's name)
T2 sequence (P55055 whole entry): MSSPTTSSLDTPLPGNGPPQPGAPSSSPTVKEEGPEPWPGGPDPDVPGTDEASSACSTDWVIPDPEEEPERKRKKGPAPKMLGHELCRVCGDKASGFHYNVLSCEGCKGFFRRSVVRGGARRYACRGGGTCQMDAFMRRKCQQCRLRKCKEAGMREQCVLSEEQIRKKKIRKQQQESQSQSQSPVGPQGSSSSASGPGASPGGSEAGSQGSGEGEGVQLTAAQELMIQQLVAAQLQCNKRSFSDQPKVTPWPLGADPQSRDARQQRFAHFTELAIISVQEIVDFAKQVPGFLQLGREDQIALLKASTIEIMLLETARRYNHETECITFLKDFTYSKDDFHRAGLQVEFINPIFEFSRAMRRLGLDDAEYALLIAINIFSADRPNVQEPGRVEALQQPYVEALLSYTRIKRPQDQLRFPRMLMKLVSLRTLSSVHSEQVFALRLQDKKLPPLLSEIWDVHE

[4] = target: T3, E3 ubiquitin-protein ligase XIAP (Homo sapiens, UniProt P98170); assay: Counter Screen using XIAP-Bir3 for Chemical Antagonists of Bir1/2 domains of IAP-family anti-apoptotic proteins. [Related pubchem assays (depositor defined):AID1018, AID1449, AID1514, AID1638, AID1749, AID1750, AID488957, AID488963]
[5] = target: T3, E3 ubiquitin-protein ligase XIAP; assay: small molecules displacing peptide from XIAP – biochemical, IAP family, fluorescence polarization (AID 1018); format: functional
[6] = target: Glucose-6-phosphate 1-dehydrogenase (Homo sapiens, UniProt P11413); assay: inhibition of Homo sapiens G6PD, dose series – biochemical, fluorescence, selectivity assay for P. falciparum G6PD inhibitor project, dose response (AID 504792); format: functional
[7] = target: Eukaryotic translation initiation factor 4E (Mus musculus, UniProt P63073); assay: blockers of eIF4G binding by eIF4E – biochemical, TR-FRET, dose response (AID 855); format: functional;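 note: potency for disrupting eIF4E binding to eIF4GI seen as loss of FRET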
Hexokinase HKDC1 = target: T4, Hexokinase HKDC1 (Homo sapiens, UniProt Q2TB90); assay: inhibition of HKDC1 glucose phosphorylation – biochemical, W721R variant, dose response (AID 504729); format: functional
T4 sequence (Q2TB90 whole entry): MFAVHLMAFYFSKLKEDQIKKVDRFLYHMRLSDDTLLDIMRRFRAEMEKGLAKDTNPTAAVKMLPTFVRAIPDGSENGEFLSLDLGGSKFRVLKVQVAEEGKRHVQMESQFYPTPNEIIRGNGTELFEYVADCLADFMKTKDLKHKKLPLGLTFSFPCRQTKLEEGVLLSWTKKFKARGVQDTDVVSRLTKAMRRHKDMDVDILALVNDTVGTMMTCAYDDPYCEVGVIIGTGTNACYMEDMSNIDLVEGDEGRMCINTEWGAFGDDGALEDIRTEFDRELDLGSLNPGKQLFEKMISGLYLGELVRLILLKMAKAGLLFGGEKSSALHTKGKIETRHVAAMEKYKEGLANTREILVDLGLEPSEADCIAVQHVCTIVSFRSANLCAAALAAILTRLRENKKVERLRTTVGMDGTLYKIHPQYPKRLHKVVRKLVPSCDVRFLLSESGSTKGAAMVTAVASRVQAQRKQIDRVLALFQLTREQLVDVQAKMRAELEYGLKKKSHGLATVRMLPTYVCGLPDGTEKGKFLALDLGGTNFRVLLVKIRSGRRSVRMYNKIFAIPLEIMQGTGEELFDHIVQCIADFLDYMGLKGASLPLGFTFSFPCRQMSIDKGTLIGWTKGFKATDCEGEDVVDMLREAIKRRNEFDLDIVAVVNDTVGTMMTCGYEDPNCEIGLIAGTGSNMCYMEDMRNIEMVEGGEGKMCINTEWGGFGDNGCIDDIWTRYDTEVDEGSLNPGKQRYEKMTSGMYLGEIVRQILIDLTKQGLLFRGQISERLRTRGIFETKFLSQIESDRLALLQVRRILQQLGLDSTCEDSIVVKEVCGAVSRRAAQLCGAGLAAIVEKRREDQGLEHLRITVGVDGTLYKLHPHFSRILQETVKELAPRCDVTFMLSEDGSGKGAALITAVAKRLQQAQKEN

[8] = target: T5, Replicative DNA helicase DnaB (Mycobacterium tuberculosis, UniProt P9WMR3); assay: DnaB intein splicing inhibitors, dose response, biochemical, cell-free fluorescence (AID 449749); format: functional
T5 sequence (P9WMR3 whole entry): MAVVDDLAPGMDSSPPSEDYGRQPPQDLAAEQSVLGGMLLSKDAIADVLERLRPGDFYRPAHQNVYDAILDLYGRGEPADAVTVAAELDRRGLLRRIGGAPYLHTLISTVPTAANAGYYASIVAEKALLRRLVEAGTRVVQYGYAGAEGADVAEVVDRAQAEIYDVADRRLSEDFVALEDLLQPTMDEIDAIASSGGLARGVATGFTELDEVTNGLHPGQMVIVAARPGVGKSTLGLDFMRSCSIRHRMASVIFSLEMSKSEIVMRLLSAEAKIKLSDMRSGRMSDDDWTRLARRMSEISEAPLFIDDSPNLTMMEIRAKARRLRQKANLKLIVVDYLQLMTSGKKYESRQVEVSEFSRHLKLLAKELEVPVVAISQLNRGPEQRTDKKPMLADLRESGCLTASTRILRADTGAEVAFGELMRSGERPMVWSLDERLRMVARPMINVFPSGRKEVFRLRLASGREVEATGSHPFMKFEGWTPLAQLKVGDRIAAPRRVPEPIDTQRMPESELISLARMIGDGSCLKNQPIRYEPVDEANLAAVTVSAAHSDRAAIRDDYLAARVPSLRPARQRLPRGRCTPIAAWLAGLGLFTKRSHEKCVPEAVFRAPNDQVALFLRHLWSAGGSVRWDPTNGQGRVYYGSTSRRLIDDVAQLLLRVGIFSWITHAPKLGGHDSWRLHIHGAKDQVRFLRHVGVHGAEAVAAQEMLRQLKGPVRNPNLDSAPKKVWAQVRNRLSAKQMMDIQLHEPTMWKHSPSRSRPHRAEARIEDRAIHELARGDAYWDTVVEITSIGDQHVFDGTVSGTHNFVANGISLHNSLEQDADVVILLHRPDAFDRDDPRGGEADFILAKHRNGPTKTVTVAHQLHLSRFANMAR

Protein RecA = target: T6, Protein RecA (Mycobacterium tuberculosis, UniProt P9WHJ3); assay: Fluorescence Cell-Free Homogeneous Dose Retest to Identify Inhibitors of RecA-Intein Splicing Activity. [Related pubchem assays (depositor defined):AID2097, AID2223, AID489010, AID492950]; format: functional
T6 sequence (P9WHJ3 whole entry): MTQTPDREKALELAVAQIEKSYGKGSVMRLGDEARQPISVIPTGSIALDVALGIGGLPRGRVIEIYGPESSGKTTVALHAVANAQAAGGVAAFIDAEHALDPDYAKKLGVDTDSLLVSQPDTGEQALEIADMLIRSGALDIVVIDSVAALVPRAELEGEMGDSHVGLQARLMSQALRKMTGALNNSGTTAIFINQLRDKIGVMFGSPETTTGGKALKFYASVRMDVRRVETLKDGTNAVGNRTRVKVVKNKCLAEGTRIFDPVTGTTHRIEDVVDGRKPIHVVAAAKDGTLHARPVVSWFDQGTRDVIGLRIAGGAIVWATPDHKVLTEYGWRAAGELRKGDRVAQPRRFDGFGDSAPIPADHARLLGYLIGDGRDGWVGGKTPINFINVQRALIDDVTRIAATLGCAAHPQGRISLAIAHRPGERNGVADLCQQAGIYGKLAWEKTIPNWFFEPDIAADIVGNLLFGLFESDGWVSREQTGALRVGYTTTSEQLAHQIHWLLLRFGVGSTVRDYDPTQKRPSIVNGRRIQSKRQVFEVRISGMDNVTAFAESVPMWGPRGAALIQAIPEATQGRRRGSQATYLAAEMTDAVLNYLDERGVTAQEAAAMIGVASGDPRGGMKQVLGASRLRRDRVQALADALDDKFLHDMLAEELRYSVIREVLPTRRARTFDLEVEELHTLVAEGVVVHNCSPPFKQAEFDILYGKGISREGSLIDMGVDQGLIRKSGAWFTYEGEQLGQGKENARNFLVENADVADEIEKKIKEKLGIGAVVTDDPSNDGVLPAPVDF

Genome polyprotein = Genome polyprotein (dengue virus type 2, UniProt P29990); assay: flavivirus cap methylation enzyme inhibition – biochemical, confirmation dose response, primary screen (AID 588689); format: functional
Protein Tat = Protein Tat (Human immunodeficiency virus type 1 group M subtype B (isolate HXB2)(HIV-1), UniProt P04608); format: functional;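 note: tat binding to TAR RNA read out by fluorescence polarization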
[9] = growth inhibition of yeast DHODH-expressing 3D7 parasites – SYBR Green, dry powder samples, dose response (AID 1159570); format: functional, cell-based;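 note: parasite growth measured after 72 hours of compound exposure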
[10] = toxicity to human HepG2 hepatoma cells – cell-based, plate reader, dry powder samples, cytotoxicity control, dose response (AID 1159569); format: functional;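 note: inhibitor potency with signal falling toward the positive control level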
[11] = P. falciparum Dd2 growth inhibitors, dose response, SYBR Green, cherry-picked samples (AID 1159567); format: functional, cell-based
[12] = Dd2 malaria parasite growth inhibition potency – SYBR Green, dry powder samples, dose response (AID 1159566); format: functional, cell-based;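 note: potency for growth inhibition with lower SYBR green DNA signal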
[13] = toxicity to human hepatoma HepG2 cells – cell-based, cherry-picked samples, cytotoxicity control, dose response (AID 1159577); format: functional
[14] = growth inhibition of PfATP4-mutant resistant parasites – NITD609-resistant line, SYBR Green, dry powder, dose response (AID 1159571); format: functional, cell-based;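 note: parasites synchronized at ring stage by sorbitol before testing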
[15] = target: Luciferin 4-monooxygenase (Photinus pyralis, UniProt P08659); assay: Counter Screen for Luciferase-based Assay Positives. [Related pubchem assays: 620, 618, 411 ]
HT-1080 = assay: HT1080 cell viability loss – fluorescence readout (AID 620); format: functional, cell-based; details: Homo sapiens
[16] = target: T2, Oxysterols receptor LXR-beta; format: functional, cell-based

Sequence of Protein Tat (P04608 whole entry): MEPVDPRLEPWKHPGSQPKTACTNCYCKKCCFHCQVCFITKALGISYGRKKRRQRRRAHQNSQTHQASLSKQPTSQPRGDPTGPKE
T3 sequence (P98170 whole entry): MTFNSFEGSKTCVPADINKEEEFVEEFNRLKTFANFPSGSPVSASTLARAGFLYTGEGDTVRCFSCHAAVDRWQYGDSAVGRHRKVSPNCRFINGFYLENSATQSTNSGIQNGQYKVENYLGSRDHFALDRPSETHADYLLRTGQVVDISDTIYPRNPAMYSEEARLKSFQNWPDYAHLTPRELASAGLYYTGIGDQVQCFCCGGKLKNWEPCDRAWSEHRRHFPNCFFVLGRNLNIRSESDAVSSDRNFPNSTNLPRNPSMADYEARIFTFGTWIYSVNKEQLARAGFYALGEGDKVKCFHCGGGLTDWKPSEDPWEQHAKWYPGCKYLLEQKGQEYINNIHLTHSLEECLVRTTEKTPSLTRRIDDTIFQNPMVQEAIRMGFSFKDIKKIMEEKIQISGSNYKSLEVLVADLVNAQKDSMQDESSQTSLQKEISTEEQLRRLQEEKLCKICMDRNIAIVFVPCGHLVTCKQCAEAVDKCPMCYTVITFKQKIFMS
Sequence of Glucose-6-phosphate 1-dehydrogenase (P11413 whole entry): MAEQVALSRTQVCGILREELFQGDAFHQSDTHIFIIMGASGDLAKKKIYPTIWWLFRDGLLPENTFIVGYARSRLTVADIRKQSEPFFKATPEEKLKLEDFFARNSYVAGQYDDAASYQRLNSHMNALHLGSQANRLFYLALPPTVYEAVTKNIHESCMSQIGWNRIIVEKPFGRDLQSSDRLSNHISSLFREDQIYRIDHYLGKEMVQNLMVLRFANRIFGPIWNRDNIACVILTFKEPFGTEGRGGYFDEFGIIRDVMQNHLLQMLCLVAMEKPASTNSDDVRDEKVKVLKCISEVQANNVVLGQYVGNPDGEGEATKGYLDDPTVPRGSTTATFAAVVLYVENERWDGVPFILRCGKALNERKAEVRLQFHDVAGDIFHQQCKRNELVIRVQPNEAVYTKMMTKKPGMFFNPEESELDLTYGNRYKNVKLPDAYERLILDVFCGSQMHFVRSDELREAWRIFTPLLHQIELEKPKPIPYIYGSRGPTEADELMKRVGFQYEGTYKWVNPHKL
Sequence of Eukaryotic translation initiation factor 4E (P63073 whole entry): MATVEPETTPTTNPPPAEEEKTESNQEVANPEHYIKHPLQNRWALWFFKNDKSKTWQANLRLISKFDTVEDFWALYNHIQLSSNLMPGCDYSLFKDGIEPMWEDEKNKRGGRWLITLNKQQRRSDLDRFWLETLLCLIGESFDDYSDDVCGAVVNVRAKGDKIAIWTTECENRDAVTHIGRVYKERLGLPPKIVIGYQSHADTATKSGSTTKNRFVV
Sequence of Luciferin 4-monooxygenase (P08659 whole entry): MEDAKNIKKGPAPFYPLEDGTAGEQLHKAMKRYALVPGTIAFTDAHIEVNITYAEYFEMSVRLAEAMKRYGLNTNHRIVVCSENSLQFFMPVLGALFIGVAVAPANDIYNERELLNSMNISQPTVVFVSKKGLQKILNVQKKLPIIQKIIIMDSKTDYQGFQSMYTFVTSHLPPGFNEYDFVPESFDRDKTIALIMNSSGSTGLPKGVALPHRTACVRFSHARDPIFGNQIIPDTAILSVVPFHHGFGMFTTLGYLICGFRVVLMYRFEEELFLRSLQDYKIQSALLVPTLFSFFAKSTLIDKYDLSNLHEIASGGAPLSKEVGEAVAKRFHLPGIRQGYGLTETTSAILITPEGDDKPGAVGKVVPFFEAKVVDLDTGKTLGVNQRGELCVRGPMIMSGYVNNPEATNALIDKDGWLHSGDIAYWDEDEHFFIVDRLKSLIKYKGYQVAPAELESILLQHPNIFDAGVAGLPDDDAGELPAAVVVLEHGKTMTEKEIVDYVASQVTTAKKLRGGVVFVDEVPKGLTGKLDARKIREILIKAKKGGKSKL
Sequence of Genome polyprotein (P29990 2492-3391 limits assumed): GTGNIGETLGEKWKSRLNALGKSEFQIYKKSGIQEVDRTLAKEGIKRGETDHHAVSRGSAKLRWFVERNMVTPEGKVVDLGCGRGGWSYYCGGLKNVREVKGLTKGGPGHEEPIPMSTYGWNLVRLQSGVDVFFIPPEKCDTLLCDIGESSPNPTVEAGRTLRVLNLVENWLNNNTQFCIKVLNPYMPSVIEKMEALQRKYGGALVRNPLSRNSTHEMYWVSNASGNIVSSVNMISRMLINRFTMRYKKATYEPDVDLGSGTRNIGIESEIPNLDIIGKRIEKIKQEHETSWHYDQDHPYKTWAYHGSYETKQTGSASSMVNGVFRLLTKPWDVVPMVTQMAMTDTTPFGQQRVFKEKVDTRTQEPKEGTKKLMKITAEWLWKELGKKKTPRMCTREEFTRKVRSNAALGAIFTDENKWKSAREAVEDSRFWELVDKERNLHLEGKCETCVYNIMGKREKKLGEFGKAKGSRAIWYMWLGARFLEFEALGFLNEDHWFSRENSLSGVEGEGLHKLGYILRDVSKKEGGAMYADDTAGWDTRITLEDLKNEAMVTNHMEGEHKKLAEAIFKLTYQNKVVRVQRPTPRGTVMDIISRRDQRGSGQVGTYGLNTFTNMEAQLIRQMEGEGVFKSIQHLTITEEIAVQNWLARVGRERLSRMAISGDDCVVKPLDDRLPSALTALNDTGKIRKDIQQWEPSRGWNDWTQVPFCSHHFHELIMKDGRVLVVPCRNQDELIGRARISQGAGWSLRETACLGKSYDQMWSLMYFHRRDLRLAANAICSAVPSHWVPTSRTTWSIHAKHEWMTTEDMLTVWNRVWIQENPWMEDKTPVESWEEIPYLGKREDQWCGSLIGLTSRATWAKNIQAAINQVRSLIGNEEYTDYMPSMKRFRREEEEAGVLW

Which AC50 [1] does the source give for `Cc1ccc(C(=O)NC(=S)c2c(C)cc3ccccn23)cc1` here?
Its AC50 is 11 µM (active).

And the IC50 [2]?
Its IC50 is > 67.5 µM (inactive).

And the EC50 [3]?
Its EC50 is > 67.5 µM (inactive).

Which results are given for `Oc1nc2ccccc2n2c(-c3ccccc3)nnc12`?
IC50 [4]: > 100 µM (inactive); IC50 [5]: > 100 µM (not active); IC50 [6]: 41.6 µM (inactive); IC50 [7]: 34.4 µM (inactive); IC50 (Hexokinase HKDC1): 7.52 µM (active); AC50 [8]: > 380 µM (inactive); EC50 (Protein RecA): 12.8 µM (active); IC50 (Genome polyprotein): 8.26 µM (active); IC50 (Protein Tat): > 100 µM (active)

What does the source list for `COc1ccccc1C#Cc1ccc([C@@H]2[C@@H](C#N)N(C(=O)C3CCCC3)[C@H]2CO)cc1`?
AC50 [9]: 1.92 µM (active); AC50 [10]: 25.2 µM (active); AC50 [11]: 2.9 µM (active); AC50 [12]: 1.22 µM (active); AC50 [13]: > 39 µM (inactive); AC50 [14]: 1.39 µM (active)

For `CCc1ccc2oc(-c3cccc(N)c3)nc2c1`, which EC50 [15] is on record?
The EC50 was 0.37 µM (active).

And the EC50 (HT-1080)?
Its EC50 is > 50 µM (not active).

And the IC50 [2]?
Its IC50 is > 67.5 µM (inactive).

What about the EC50 [3] of the same compound?
The EC50 was > 67.5 µM (inactive).

And the EC50 [16]?
Its EC50 is > 67.6 µM (inactive).

With `CCCOC(=O)Nc1sc2c(c1C(=O)OCC)CCC2` as the compound, how does the IC50 (Protein Tat) read?
The IC50 was > 100 µM (active).
